Source: PMC10648349, “Aromatic Diboronic Acids as Effective KPC/AmpC Inhibitors” (Molecules, 2023)
Values after ≈ are worked out from the molar mass of the structure shown. Where two headings read alike, the source gives them in different places.

Key:
[1] = system: P. aeruginosa MUW 700 AmpC(+); experiment: MIC of tested agent alone, microdilution; assay type: cell-based
Protocol: (§1) To examine the ability of tested agents to inhibit various carbapenemases and AmpC-enzymes, their synergy with antibiotics against β-lactamase-producing strains was assessed by checkerboard microdilution assay, with slight modification. Checkerboards were prepared in microtiter plates, with seven two-fold dilutions of β-lactams (1–64 mg/L) in the rows and three two-fold dilutions of tested agents and PBA (4–16 mg/L) in the columns. Tested agents’ concentrations were limited to the concentrations at which the newest commercially available BLIs (vaborbactam, relebactam, and avibactam) are used in susceptibility testing. Plates were inoculated and incubated as in the MIC microdilution assay. Parallel, MICs of tested agents and PBA alone were determined by the microdilution assay. Following the incubation, antibiotic MICs in the presence of each agent’s concentration were determined. Moreover, for the first well without growth found in each checkerboard row and column along the growth/non-growth interface, the fractional inhibitory concentration index (FICI) was calculated using the formula below:FICI = [(MIC of antibiotic in combination)/(MIC of antibiotic alone)] + [(MIC of the tested agent in combination)/(MIC of tested agent alone)].

C. tropicalis IBA 171 = experiment: antifungal activity (disc-diffusion, MIC, MFC); assay type: cell-based; conditions: Candida tropicalis, IBA171; for MIC: fluconazole by Etest
Summary of the method: (§2)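 EUCAST/CLSI methods: disc diffusion at 0.4 mg compound/disc, broth MIC, then MBC (bacteria) or MFC (yeast). DMSO vehicle.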

C. albicans ATCC 90028 = experiment: antifungal activity (disc-diffusion, MIC, MFC); assay type: cell-based; conditions: Candida albicans, ATCC90028; for MIC: fluconazole by Etest
Summary of the method: as §2

C. tropicalis ATCC 750 = experiment: antifungal activity (disc-diffusion, MIC, MFC); assay type: cell-based; conditions: Candida tropicalis, ATCC750; for MIC: fluconazole by Etest
Summary of the method: as §2

S. cerevisiae ATCC 9763 = experiment: antifungal activity (disc-diffusion, MIC, MFC); assay type: cell-based; conditions: Saccharomyces cerevisiae, ATCC9763; for zone of inhibition at 0.4 mg/disc: 0.4 mg per disc, 9 mm disc (fluconazole 0.025 mg, 6 mm disc), - no zone, read-out: Diameter of inhibition zone; for MIC: fluconazole by Etest
Summary of the method: as §2

[2] = system: K. pneumoniae ATCC 700603 ESBL-positive; experiment: combination disc test CDT-ESBL; assay type: cell-based; conditions: Klebsiella pneumoniae
S. aureus ATCC 6538P = experiment: direct antimicrobial activity (disc-diffusion, MIC, MBC); assay type: cell-based; conditions: Staphylococcus aureus, ATCC6538P
Summary of the method: as §2

[3] = system: S. epidermidis ATCC 12228; experiment: as above; assay type: cell-based; conditions: Staphylococcus epidermidis, ATCC12228
Summary of the method: as §2

E. faecium ATCC 6057 = experiment: as above; assay type: cell-based; conditions: Enterococcus faecium, ATCC6057
Summary of the method: as §2

E. faecalis ATCC 29212 = experiment: as above; assay type: cell-based; conditions: Enterococcus faecalis, ATCC29212
Summary of the method: as §2

[4] = system: S. aureus ATCC 43300 MRSA; experiment: as above; assay type: cell-based; conditions: Staphylococcus aureus
Summary of the method: as §2

[5] = system: P. aeruginosa MUW 700 cAmpC-positive; experiment: checkerboard microdilution, antibiotic plus tested agent; assay type: cell-based, Pseudomonas aeruginosa
Protocol: as §1
For calculations, all off-scale MICs were converted to the next-highest doubling concentration. Subsequently, both the average and the lowest FICI were interpreted. The interpretation was as follows: FICI ≤ 0.5, synergy; 0.5 < FICI ≤ 4, indifference and FICI > 4, antagonism. Primarily, examined combinations consisted of meropenem (Pol-Aura, Morag, Poland) plus tested agents against carbapenemases-producing strains and ceftazidime (Pol-Aura, Morag, Poland) plus tested agents against AmpC-producing strains. For agents that reduced meropenem MIC at least 4-fold for at least two tested strains, similar assays were performed with imipenem (Pol-Aura, Morag, Poland) and ertapenem (Pol-Aura, Morag, Poland).

[6] = system: K. pneumoniae ATCC BAA 1705 KPC-2-positive; experiment: combination disc test CDT-KPC; assay type: cell-based; conditions: Klebsiella pneumoniae
C. krusei ATCC 6258 = experiment: antifungal activity (disc-diffusion, MIC, MFC); assay type: cell-based, Candida krusei; conditions: Pichia kudriavzevii, ATCC6258; for MIC: fluconazole by Etest
Summary of the method: as §2

[7] = MTT-based viability assay; assay type: cell-based; conditions: human
Summary of the method: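 Percent viable cells relative to control, measured in triplicate by MTT read-out at 570 nm. Cells: MRC-5 human fibroblasts cultured at 37 °C, 5% CO2 in MEME plus 10% FBS.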

[8] = system: C. parapsilosis ATCC 22019; experiment: antifungal activity (disc-diffusion, MIC, MFC); assay type: cell-based, Candida parapsilosis; conditions: Lodderomyces parapsilosis, ATCC22019; for MIC: fluconazole by Etest
Summary of the method: as §2

[9] = system: E. coli 77 CMY-2-positive; experiment: combination disc test CDT-AmpC; assay type: cell-based; conditions: Escherichia coli, read-out: Diameter of inhibition zone, CAZ-30 disc with agent
[10] = Pseudomonas aeruginosa; read-out: MIC of agent alone
[11] = 0.4 mg per disc, 9 mm disc (linezolid 0.03 mg, 6 mm disc), - no zone, read-out: Diameter of inhibition zone
[12] = MRC-5 human fibroblasts, 12.5 mg/L, 72 h, read-out: Viability of MRC-5 cells (% of viable cells ± SD)
[13] = MRC-5 human fibroblasts, 25 mg/L, 72 h, read-out: Viability of MRC-5 cells (% of viable cells ± SD)
[14] = MRC-5 human fibroblasts, 50 mg/L, 72 h, read-out: Viability of MRC-5 cells (% of viable cells ± SD)
[15] = 0.4 mg per disc, 9 mm disc (fluconazole 0.025 mg, 6 mm disc), - no zone, read-out: Diameter of inhibition zone

Structure (SMILES) | MIC [1, 10] | MIC (C. tropicalis IBA 171) | MIC (C. albicans ATCC 90028) | MIC (C. tropicalis ATCC 750) | zone of inhibition at 0.4 mg/disc (S. cerevisiae ATCC 9763) | MIC (S. cerevisiae ATCC 9763) | MIC (S. aureus ATCC 6538P) | MIC [3] | MIC (E. faecium ATCC 6057) | MIC (E. faecalis ATCC 29212) | MIC [4] | Average FICI with ceftazidime [5] | Interpretation of the average FICI with ceftazidime [5] | Interpretation of the lowest FICI with ceftazidime [5] | The lowest FICI with ceftazidime [5] | MIC (C. krusei ATCC 6258) | viability at 72 h, 12.5 mg/L [7, 12] | viability at 72 h, 25 mg/L [7, 13] | viability at 72 h, 50 mg/L [7, 14] | MIC [8] | also measured
OB(O)c1cccc(F)c1B(O)O [3b] | > 400 µg/mL | 200 µg/mL (≈ 1090 µM) | 400 µg/mL (≈ 2180 µM) | 200 µg/mL (≈ 1090 µM) | 13 mm | 100 µg/mL (≈ 544 µM) | > 400 µg/mL | 400 µg/mL (≈ 2180 µM) | > 400 µg/mL | > 400 µg/mL | > 400 µg/mL | 0.60 | I (0.5 < FICI ≤ 4, indifference) | S (FICI ≤ 0.5, synergy) | 0.27 | 100 µg/mL (≈ 544 µM) | 98.1 ± 6.1% | 91.2 ± 13.5% | 87.1 ± 8% | 200 µg/mL (≈ 1090 µM) | zone of inhibition at 300 µg/disc ([2]; ATCC700603, agent 0.3 mg per disc, read-out: Diameter of inhibition zone, CAZ-30 disc with agent): 16 mm; zone of inhibition at 0.4 mg/disc [3, 11]: 21 mm; zone of inhibition at 300 µg/disc ([6]; BAA1705, agent 0.3 mg per disc, read-out: Diameter of inhibition zone, MEM-10 disc with agent): 14 mm; zone of inhibition at 300 µg/disc ([9]; agent 0.3 mg per disc): 25 mm
OB(O)c1ccccc1 [PBA, phenylboronic acid, reference compound] | – | – | – | – | – | – | – | – | – | – | – | 0.10 | S (FICI ≤ 0.5, synergy) | S (FICI ≤ 0.5, synergy) | 0.07 | – | – | – | – | – | MIC ([1]; Pseudomonas aeruginosa, read-out: MIC of agent alone): > 400 µg/mL; zone of inhibition at 300 µg/disc ([2]; ATCC700603, read-out: Diameter of inhibition zone, CAZ-30 disc with agent): 14 mm; zone of inhibition at 300 µg/disc ([6]; BAA1705, read-out: Diameter of inhibition zone, MEM-10 disc with agent): 21 mm; viability at 72 h, 12.5 mg/L ([7]; 12.5 mg/L, 72 h, read-out: Viability of MRC-5 cells (% of viable cells ± SD)): 81.5 ± 3.7%; viability at 72 h, 25 mg/L ([7]; 25 mg/L, 72 h, read-out: Viability of MRC-5 cells (% of viable cells ± SD)): 79.1 ± 4.4%; viability at 72 h, 50 mg/L ([7]; 50 mg/L, 72 h, read-out: Viability of MRC-5 cells (% of viable cells ± SD)): 58.7 ± 4.3%; zone of inhibition at 300 µg/disc [9]: 24 mm
OB(O)c1cc(B(O)O)c(F)cc1F [2c] | > 400 µg/mL | > 400 µg/mL | > 400 µg/mL | > 400 µg/mL | – | > 400 µg/mL | 50 µg/mL (≈ 248 µM) | 50 µg/mL (≈ 248 µM) | 400 µg/mL (≈ 1980 µM) | 400 µg/mL (≈ 1980 µM) | 100 µg/mL (≈ 496 µM) | 0.22 | S (FICI ≤ 0.5, synergy) | S (FICI ≤ 0.5, synergy) | 0.15 | > 400 µg/mL | 89.1 ± 0.5% | 83.6 ± 2.7% | 63.8 ± 2.5% | > 400 µg/mL | zone of inhibition at 100 µg/disc ([2]; ATCC700603, agent 0.1 mg per disc, read-out: Diameter of inhibition zone, CAZ-30 disc with agent): 13 mm; zone of inhibition at 0.4 mg/disc (S. aureus ATCC 6538P; [11]): 20 mm; zone of inhibition at 0.4 mg/disc [4, 11]: 19 mm; zone of inhibition at 100 µg/disc ([6]; BAA1705, agent 0.1 mg per disc, read-out: Diameter of inhibition zone, MEM-10 disc with agent): 6 mm; zone of inhibition at 100 µg/disc ([9]; agent 0.1 mg per disc): 19 mm
OB(O)c1cc(F)ccc1F [7a, 2,5-difluorophenylboronic acid] | 400 µg/mL | 25 µg/mL (≈ 158 µM) | 25 µg/mL (≈ 158 µM) | 50 µg/mL (≈ 317 µM) | 18 mm | 50 µg/mL (≈ 317 µM) | 50 µg/mL (≈ 317 µM) | 100 µg/mL (≈ 633 µM) | 400 µg/mL (≈ 2530 µM) | 400 µg/mL (≈ 2530 µM) | 100 µg/mL (≈ 633 µM) | 0.17 | S (FICI ≤ 0.5, synergy) | S (FICI ≤ 0.5, synergy) | 0.10 | 50 µg/mL (≈ 317 µM) | – | – | – | 25 µg/mL (≈ 158 µM) | zone of inhibition at 0.4 mg/disc (C. tropicalis IBA 171; [15]): 25 mm; zone of inhibition at 0.4 mg/disc (C. albicans ATCC 90028; [15]): 29 mm; zone of inhibition at 0.4 mg/disc (C. tropicalis ATCC 750; [15]): 21 mm; zone of inhibition at 30 µg/disc ([2]; ATCC700603, agent 0.03 mg per disc, read-out: Diameter of inhibition zone, CAZ-30 disc with agent): 15 mm; zone of inhibition at 30 µg/disc ([6]; BAA1705, agent 0.03 mg per disc, read-out: Diameter of inhibition zone, MEM-10 disc with agent): 13 mm; zone of inhibition at 0.4 mg/disc (C. krusei ATCC 6258; [15]): 15 mm; viability at 72 h, 12.5 mg/L [7]: 83 ± 2.9%; viability at 72 h, 25 mg/L [7]: 79.9 ± 3.7%; viability at 72 h, 50 mg/L [7]: 67.3 ± 3.1%; zone of inhibition at 0.4 mg/disc [8, 15]: 21 mm; zone of inhibition at 30 µg/disc ([9]; agent 0.03 mg per disc): 19 mm
